Legend:
Bioavailability studies = assay type: in vivo; details: Swiss albino mice, at a 100 mg/kg dose
HIF-1α and HIF-2α = experiment: Western blots for HIF-1α and HIF-2α in ccRCC cells; assay type: cell-based, human; details: 786-0 or RCC10 ccRCC cells, 24h, relative to GAPDH
Protocol: (§1) Western blots were performed to determine the effects of the compounds on levels of HIF-2α and other relevant proteins, whereas qPCR was performed to determine the effects of compounds on transcript levels of HIF target genes. 786-0 or RCC10 cells were plated at 1×10E5 cells/well in 2 ml DMEM with 10% FBS/well in 6-well tissue culture plates. Cells were allowed to adhere overnight in a humidified incubator at 37° C. with 5% CO2, after which the appropriate concentrations of compounds in DMSO were added. DMSO concentrations were kept constant in all wells. After 24 h exposure to the compounds, cells were lysed and subjected to western blotting according to standard protocols. Antibodies for HIF-1α and HIF-2α and GAPDH were purchased from Cell Signaling Technology (Danvers, MA), whereas antibodies to IRP2 and pVHL were from Santa Cruz Biotechnology (Dallas, TX), and GPX4 antibody was from R&D Systems, Inc (Minneapolis, MN). Representative data in FIG. 2 show a dose-dependent effect of compounds in decreasing HIF-1/2α. Compounds also impact cellular iron sensing given by increased IRP2, which taken together indicate that cells sense decreased amounts of available iron, which triggers the iron starvation response initiated by IRP2 stabilization. Representative data shown in FIG. 3D show a dose dependent effect of the compounds on GPX4, which may indicate decreased resistance to ferroptosis. […] The data also show increased expression of ISCA2 with pVHL re-expression.

IRP2 and GPX4 = experiment: Western blots for cellular iron-sensing machinery (IRP2, GPX4); assay type: cell-based, human; details: 786-0 or RCC10 ccRCC cells, 24h, relative to GAPDH
Protocol: as §1

[1] = test system: HIF-2α Iron-Responsive Element (IRE); experiment: HIF-2α IRE-Luc reporter assay; assay type: cell-based, human; details: 786-0 cells stably expressing HIF-2α IRE-Luc, 24h
Protocol: Screens for inhibitory activity of compounds described herein were performed using 786-0 ccRCC cells that stably express HRE-Luc: 5 copies of the hypoxia-responsive element (HRE) fused to the pGL3 luciferase reporter (Promega Corp, Madison WI). 786-0 cells are pVHL deficient and thus constitutively express HIF-2α independently of cellular oxygen tension. Since 786-0 cells lack HIF-1α, HRE-driven luciferase activity is primarily HIF-2α driven, and has been previously validated. Cells were maintained at log phase growth in […] (DMEM) with 10% FBS in a humidified incubator at 37° C. with 5% CO2. For screening assays, cells were seeded at a density of 4,000 cells in 50 μl of complete media/well in quadruplicate wells/point in a 96-well plate. After 24 h, 50 μl of a 2× concentration of test compound was added to each well. […] After 24 h treatment, luciferase activity was measured using the Steady-Glo Luciferase assay system (Promega Corp) according to the manufacturer's protocol. Cell viability was measured in quadruplicate parallel wells using resazurin as recommended by the manufacturer (R&D systems, Minneapolis, MN). […] Representative data determined using Steady-Glo luciferase and resazurin are shown in FIGS. 1A and 1B respectively, with error bars showing SD. […]

786-0 cells = experiment: TBARS assay of lipid peroxidation (MDA); assay type: cell-based, human; details: 48h treatment
Protocol: Malondialdehyde (MDA) is an end product of lipid peroxidation products and can be used to indicate lipid peroxidation, which is a hallmark of ferroptosis. MDA adducts were quantitated in cells and tumor tissue using the TBARS-TCA Method kit (Cat 700870, Cayman Chemicals, Ann Arbour Michigan) according to the manufacturer's protocol. Briefly, 786-0 cells were seeded at 1.75×10E6 cells in T75 cm^2 flasks, allowed to adhere overnight in a humidified incubator at 37° C. with 5% CO2, then treated with test compounds for 48 h, RSL3 (as positive control for 6h) or DMSO control (volume of DMSO kept constant for all flasks). Cells were detached by trypsinization, pelleted by centrifugation, washed in PBS twice, resuspended in 200 μL PBS, then sonicated for 3 minutes in a sonicating water bath. Representative data showing effects of 26HCL or 62TFA in comparison to RSL3, a classical ferroptosis inducer, is shown in FIG. 5. For MDA quantitation in tumor chunks, 20-50 mg of tumor tissue was homogenized in 200-500 μL of PBS, then sonicated for 5 minutes in a sonicating water bath. The cell or tumor lysates were subjected to the colorimetric detection methods described in manufacturer's protocol. MDA concentration of cells was determined in comparison to a standard curve of MDA stock solution provided by the manufacturer. Data was plotted using Prism GraphPad 9.3.1 Software. […]

RENCA syngeneic tumors = experiment: RENCA syngeneic tumor model, immunohistochemistry of tumors; assay type: in vivo; details: Balb/c mice, once daily oral dosing, 14 days
Protocol: A similar study was performed using RENCA cells, which are derived from a renal tumor that arose spontaneously in a male Balb/c mouse. RENCA cells were purchased from ATCC and 2 million cells were implanted into the flanks of Balb/c mice. Once tumors attained an average size of approximately 75-100 mm^3, mice were stratified into two groups and animals treated with either vehicle or 70 mg/kg 26HCL once daily PO. Mouse tumor volumes were measured three times a week until tumors reached approximately 3000 mm^3, or mice required euthanasia. […] FIG. 10B through 10D show western blot quantitation and MDA quantitation by TBARs assay, as performed for the 786-0 xenografts.
Similar studies were performed using 786-0 and RENCA tumor models treated with 62TFA. […] Immunohistochemistry was performed using standard techniques using CD8 (CST98941) and CD31 (CST77699) purchased from Cell Signaling Technologies.

[2] = test system: RCC4 or 786-0 cells±pVHL re-expression; experiment: Cell viability with pVHL re-expression; assay type: cell-based, human; details: 48h

half-life (Bioavailability studies): 7 h
Bioavailability F (Bioavailability studies; oral): 55%
SMILES: COc1nccc2[nH]c(Nc3nnc([C@H]4CC[C@@H](OC)CC4)o3)nc12 [Compound 62TFA, N-(4-methoxy-1H-imidazo[4,5-c]pyridin-2-yl)-5-((1s,4s)-4-methoxycyclohexyl)-1,3,4-oxadiazol-2-amine]
effect on HIF-1α and HIF-2α protein (Western blot) (HIF-1α and HIF-2α): decreases HIF-1α and HIF-2α
effect on IRP2 protein (Western blot) (IRP2 and GPX4): increases IRP2
effect on IRE-luciferase reporter activity normalized to resazurin [1]: decrease IRE-mediated translation of HIF-2α
lipid peroxidation (MDA-TBA adducts) (786-0 cells): induce lipid peroxidation to an extent comparable to the ferroptosis inducer RSL3
CD8 cytotoxic T-cell infiltration (immunohistochemistry of tumors) (RENCA syngeneic tumors): increases CD8-T cell infiltration
angiogenesis (CD31 immunohistochemistry of tumors) (RENCA syngeneic tumors): markedly decreases angiogenesis
effect of pVHL re-expression on cell viability response to compound [2]: re-expression of pVHL promotes resistance

Reference: patent US20250346588A1, “IMIDAZOPYRIDINE AND OXAZOLOPYRIDINE DERIVATIVES AND ANALOGS THEREOF, METHODS OF PREPARATION THEREOF, METHODS OF HIF-1/2A PATHWAY INHIBITION, AND INDUCTION OF FERROPTOSIS” (KUDA THERAPEUTICS, INC., priority 2022, published 2025)
